Where two headings read alike, the source gives them in different places.
How the values were obtained:
Assay type in all cases: in vivo
[1] = Vancomycin concentration in dermal interstitial fluid (ISF) of human participants by wearable EAB sensor; conditions: 1 gram; for Kp: dermal interstitial fluid (ISF) relative to blood, intravenous, read-out: Proportion of vancomycin monitored in ISF compartment in comparison to blood; for Cmax: dermal interstitial fluid (ISF), iv, read-out: Cmax in ISF compartment
Description: These human studies followed vancomycin levels using an EAB sensor (which may also be referred to as the “device”). The device was a self-contained wearable EAB sensor, constructed, having an on-board power supply, electrodes, and electronics, including a microprocessor and BlueTooth™ communications module.
The EAB sensor comprised four electrodes: two aptamer-coated working electrodes, a counter electrode, and a reference electrode. All electrodes were in the form of a microneedle configured to pierce the skin and contact the participant's ISF when fully inserted into the dermal tissues.
Each working electrode was coated with a vancomycin-sensitive single-stranded DNA-aptamer having a length of 28 nucleobases, obtained from Dr. Milan STOJANOVIC, New York campus research laboratory of The Trustees of Columbia University in the City of New York of 80 Claremont Avenue, 4th Floor, New York, NY 10027, United States.
A vancomycin-sensitive EAB sensor was placed onto the participant's upper arm (see FIG. 20), opposite the arm where vancomycin was being infused. The time of device application was recorded. The device was applied 30 minutes (+15 minutes) prior to administering the vancomycin infusion and the device was removed up to 10 hours post-cessation of the infusion.
(§1) 30 minutes (+15 minutes) post-application of the device, the participant received a single dose of vancomycin as an intravenous infusion (1 gram over 1 hour 40 minutes). The time of administration and completion of infusion was recorded.
Once applied to the participant, the DNA-based sensor electrodes were interrogated, and output treated as follows.
Square Wave Voltammetry (SWV) was used to interrogate the DNA-based sensor electrodes. Multiple steps were performed to convert the raw voltammograms obtained from the DNA-based sensor electrodes into a vancomycin concentration. The steps detailed below convert the raw SWV voltammograms into a signal that is indicative of the analyte concentration. • 1. Smooth the raw SWV voltammogram current versus voltage data to aid identification of the current peak and its magnitude. • 2. Apply a peak finding algorithm to the smoothed voltammogram to identify the position of the peak and to subtract a baseline current to determine a peak current magnitude. • 3. Use the determined peak currents magnitudes obtained at two different SWV interrogation frequencies (in this case 50 Hz and 300 Hz), when no vancomycin is present and when it is present to calculate an analyte concentration responsive signal (S). • 4. Smooth the S values over time, prior to applying a calibration function.
Steps 1 to 3 were used to analyse the calibration data as detailed below at (a) and (b), and steps 1 to 4 above in relation to the clinical data. • (a) Calibration data was produced from in vitro testing, where vancomycin is spiked into bovine plasma and tested using electrodes from the same production batch as those used in the clinical experiments (but not the electrode actually used in the clinical experiments). The purpose of this testing was to produce S versus known vancomycin concentration data that can be used to produce a calibration function to convert the S values into the corresponding measured vancomycin concentration values ([V]). • (b) Clinical experiment data, where the calibration function determined in (a) is applied to the S values produced by the in vivo electrodes in the clinical experiment, to convert them to measured vancomycin concentrations. […]

[2] = Skin surface temperature / adverse event monitoring of human participants during vancomycin infusion; conditions: for Physiologic response (skin surface temperature): temperature every 5 minutes
Description: Reference is made to FIG. 21A and FIG. 21B each showing a computer-rendered representation of the device (10) used in these studies, indicating one of the microneedles (30), the power supply, being a battery (105), a printed circuit board (110) having various electronic components such as the communications module and microprocessor mounted thereon, and a thermistor (115) functioning to contact the skin surface of the participant and provide an estimation of the temperature of the underlying ISF.
Participants were monitored throughout the study duration for any adverse events. Given the duration of the study visit, participants were required to stay overnight. In the absence of any adverse events, participants were discharged the following morning after being observed for at least 15 minutes post removal of the device.
The EAB sensor used in these studies penetrated 1-2 mm into the dermal interstitial compartment with micron diameter electrodes coated with a specific DNA sequence for vancomycin detection. Additionally, the EAB sensor continuously monitored (every 5 minutes) surface temperature where the normal temperature range for a human is characterised between 31-35.5° C.

[3] = Vancomycin concentration in blood/serum of human participants (blood draws); conditions: blood, iv, 1 gram, single 1 gram IV infusion over 1 hour 40 minutes
Experimental: These human studies were performed at Monash Health, Monash Medical Centre, Clayton, Victoria 3168, Australia, under protocol reference number 2021/ETH80521 and protocol trial identified and registry 80521. Institutional Ethics Committee approval was obtained before commencement of the study.
as §1
Blood samples for the measurement of vancomycin concentrations were collected prior to the administration of vancomycin infusion, 30 minutes (±5 minutes) and 1 hour (±10 minutes) during the infusion, at the end of the infusion (±15 minutes) and then at 40 minutes (±15 minutes), 1.5 hours (±15 minutes), 2 hours (±15 minutes), 3 hours (±15 minutes), 4 hours (±15 minutes), 6 hours (±15 minutes), 8 hours (±15 minutes) and 10 hours (±15 minutes) after the infusion has been completed.
These human studies characterised perfusion dynamics. The study was performed in relation to a 1000 mg vancomycin dose administered via venous infusion.
ISF dynamics are captured in real-time high resolution (every 5 minutes) detection of vancomycin concentration. […] In comparison to blood (Cmax, ~30 mg/L) very little vancomycin was monitored in the ISF compartment (Cmax~6 mg/L) which is interpreted as a low level of perfusion

[4] = participant 014 (hyper-perfusion phenotype)

CN[C@H](CC(C)C)C(=O)N[C@H]1C(=O)N[C@@H](CC(N)=O)C(=O)N[C@H]2C(=O)N[C@H]3C(=O)N[C@H](C(=O)N[C@H](C(=O)O)c4cc(O)cc(O)c4-c4cc3ccc4O)[C@H](O)c3ccc(c(Cl)c3)Oc3cc2cc(c3O[C@@H]2O[C@H](CO)[C@@H](O)[C@H](O)[C@H]2O[C@H]2C[C@](C)(N)[C@H](O)[C@H](C)O2)Oc2ccc(cc2Cl)[C@H]1O [vancomycin] gave a Kp [1, 4] of ~0.86, a Kp ([1]; participant 015 (moderate-perfusion phenotype)) of ~0.3 and a Cmax ([1]; participant 012 (hypo-perfusion phenotype), EAB sensor 812, single 1 gram IV infusion, read every 5 minutes) of ~6000 ng/mL. The Cmax ([1]; participant 014 (hyper-perfusion phenotype), EAB sensor 810, single 1 gram IV infusion) was ~10000 ng/mL, the Cmax ([1]; participant 015 (moderate-perfusion phenotype), EAB sensor 818, single 1 gram IV infusion, read every 5 minutes) was ~10000 ng/mL and the “Physiologic response (skin surface temperature)” value ([2]; participant 012, no elevations above 36° C.) was “no physiologic response”. The “Adverse reaction to vancomycin” value ([2]; participant 014, temperature elevations above 36° C. recorded, antihistamine treatment required) was “sensitivity response to vancomycin which resulted in hives and itching”, the “Physiologic response (skin surface temperature)” value ([2]; participant 015) was “no elevations depicting a physiological response” and the Cmax ([3]; participant 012 (hypo-perfusion phenotype), 12 blood draws over 12 hours) was ~30000 ng/mL. The Cmax [3, 4] was ~35000 ng/mL and the Cmax ([3]; participant 015 (moderate-perfusion phenotype), 12 blood draws over 12 hours) was ~30000 ng/mL.

Reference: US20260212981A1, “Methods of drug dosing based on early pharmacokinetics” (NUTROMICS […] LTD, priority 2022, published 2026)
